Laboratory results: patent US10577382B2, “Fused heterocyclic compound” (TAKEDA PHARMACEUTICAL COMPANY LIMITED, priority 2016, dated 2020)

Assays:
CLK2 enzyme = target: T1, CLK2 enzyme (Homo sapiens, UniProt P49760); experiment: Measurement of CLK2 inhibitory activity (LANCE time-resolved fluorescence, ULight-labeled MBP peptide); assay type: biochemical; details: compound 1 μM; ATP 1 mM; read-out: CLK2 activity inhibition ratio at compound concentration of 1 μM (ATP 1 mM)
T1 construct: purchased Thermo Fisher Scientific
Experimental: A test compound dissolved in DMSO was added to a reaction solution (50 mM HEPES (pH: 7.5), 10 mM MgCl2, 1 mM EGTA, 2 mM DTT, 0.01% Tween 20, 0.01% BSA) containing a CLK2 enzyme (Thermo Fisher Scientific) and an ULight-labeled MBP peptide (PerkinElmer), and the mixture was then reacted at room temperature for 10 minutes. An ATP solution was added to a final concentration of 1 mM to initiate an enzyme reaction, and the reaction was carried out at room temperature for 60 minutes. A europium-labeled anti-phosphorylated MBP antibody (PerkinElmer) and a LANCE Detection buffer (PerkinElmer) containing EDTA with a final concentration of 20 mM were added to stop the reaction, the mixture was left standing for 60 minutes, and the time-resolved fluorescence value (excitation 320 nm, and emission 615 nm and 665 nm) was measured by Envision (PerkinElmer). The inhibition ratio (%) of CLK2 by the test compound was calculated in accordance with the following expression. Inhibition ratio (%)=(1−(count of test compound−blank)÷(control−blank))×100
The count of the CLK2 enzyme reaction solution without addition of the compound was described as a control, and the count without addition of the compound and addition of the CLK2 enzyme was described as a blank. The concentration at which the inhibition ratio was 50% was defined as an IC50 value.

[1] = target: T2, phosphorylated CLK2 protein (Ser98) (Homo sapiens, UniProt P49760); experiment: In vitro CLK2 phosphorylation inhibitory action in HCT116 cells (western blot); assay type: cell-based; details: 300 nM, 16 hours, relative to control group
T2 construct: endogenous in cells; host or cells: HCT116 (ATCC)
Experimental: (§1) 1000 μl (8,0000 cells/well) of a cell suspension of human colon adenocarcinoma cells HCT116 (purchased from ATCC) was seeded in a 12-well plate, and cultured at 37° C. for 2 days in a 5% CO2 gas incubator. The test compound solution was added to a final concentration of 300 nM, and the mixture was cultured for 16 hours. The plate was washed with PBS, a protein extract (10% glycerol, 1% sodium dodecyl sulfate, 62.5 mM Tris-HCl (pH: 7.5)) was then added to dissolve the cells, and the solution was treated at 95° C. for 5 minutes. Thereafter, the amount of protein was determined using BCA Protein Assay Kit (Thermo Fisher Scientific).
(§2) The amount of the protein in each sample was adjusted, SDS-PAGE was then performed, and the protein was transferred to a PVDF membrane using an iBlot (registered trademark) gel transfer system (Invitrogen). […] The membrane was washed in the same procedure as described above, a phosphorylated CLK2 protein, a MDM4 protein, a p53 protein and a p21 protein each labeled with an antibody were then made chemiluminescent using ImmunoStar ZETA (Wako Pure Chemical Industries, Ltd.), and luminescence was detected with LAS-3000 Image Analyzer (Fujifilm Corporation). The luminescence intensity was determined using Multi Gauge Ver. 3.1 (Fujifilm Corporation), and quantified. […]

p21 protein = experiment: p21 induction activity in HCT116 cells (western blot); assay type: cell-based, human; details: 300 nM, 16 hours, relative to control group
Experimental: as §1, §2

SK-MEL-28-Control cells = experiment: Growth inhibitory action on SK-MEL-28-Control cells (CellTiter-Glo); assay type: cell-based, human; details: 125 nM, 3 days
From the text: Human MYC cDNA was inserted downstream of the TRE of a lentiviral vector (modified pTRIPZ: GE Healthcare) having a tetracycline responsive sequence (TRE) in the promoter region. The produced virus was infected with human malignant melanoma cells SK-MEL-28 (purchased from ATCC) to establish SK-MEL-28 cells (SK-MEL-28-MYC) inducing expression of MYC in the presence of doxycycline (Takara Bio Inc.) which is a tetracycline derivative. SK-MEL-28 cells (SK-MEL-28-Control) having an empty vector with only modified pTRIPZ were also established. 20 μL/well of 2.5 μg/mL doxycycline-containing medium was added to a 96-well plate, and 80 μl/well (1,000 cells/well) of a cell suspension was added, and cultured at 37° C. for 2 days in a 5% CO2 gas incubator. Thereafter, 100 μl of a 250 nM test compound solution was added (final concentration: 125 nM), and the mixture was further cultured for 3 days. 50 µl/well of a CellTiter-Glo™ Luminescent Cell Viability Assay reagent (Promega Corporation) was added to a 96-well plate, the amount of luminescence was measured by a luminometer, and the amount of remaining ATP was determined as a cell amount. The inhibition ratio (%) of cell growth by the test compound was calculated in accordance with the following expression. Inhibition ratio (%)=(1−(amount of luminescence of test compound)÷(amount of luminescence of control group))×100

T2 sequence (P49760 whole entry): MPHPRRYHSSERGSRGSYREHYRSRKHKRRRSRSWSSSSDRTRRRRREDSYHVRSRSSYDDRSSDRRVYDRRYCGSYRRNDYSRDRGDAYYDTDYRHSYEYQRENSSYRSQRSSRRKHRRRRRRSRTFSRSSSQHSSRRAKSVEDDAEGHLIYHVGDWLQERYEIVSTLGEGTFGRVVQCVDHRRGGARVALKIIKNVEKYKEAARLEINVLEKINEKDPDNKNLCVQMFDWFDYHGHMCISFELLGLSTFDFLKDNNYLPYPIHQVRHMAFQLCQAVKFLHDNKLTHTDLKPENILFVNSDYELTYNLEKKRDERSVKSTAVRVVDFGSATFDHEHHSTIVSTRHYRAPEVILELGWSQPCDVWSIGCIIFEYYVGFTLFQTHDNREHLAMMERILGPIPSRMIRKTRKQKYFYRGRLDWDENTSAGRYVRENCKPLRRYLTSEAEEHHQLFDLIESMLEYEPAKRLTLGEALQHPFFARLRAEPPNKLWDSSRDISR
T1 sequence (P49760 whole entry): as above

## COc1ncnn2ccc(-c3cnc4nc(C)n(Cc5nnc([C@@H](C)F)o5)c4c3)c12 [Example 286, 1-((5-((1R)-1-fluoroethyl)-1,3,4-oxadiazol-2-yl)methyl)-6-(4-methoxypyrrolo[2,1-f][1,2,4]triazin-5-yl)-2-methyl-1H-imidazo[4,5-b]pyridine]
CLK2 enzyme
  inhibition at 1 µM: 100%
[1]
  Residual ratio (phosphorylated CLK2): 71.4%
p21 protein
  Increase ratio (p21): 556.4%
SK-MEL-28-Control cells; Doxycycline (+)
  Inhibition ratio (%) of cell growth, Doxycycline (+): 35.7%
SK-MEL-28-Control cells; Doxycycline (−)
  Inhibition ratio (%) of cell growth, Doxycycline (−): 34.4%
